Experimental data: patent publication US20240368151A1, “NOVEL ERGOLINES AND METHODS OF TREATING MOOD DISORDERS” (priority 2021, published 2024)

Legend:
[1] = Metabolic stability in rat liver microsomes (RLM); type: in vitro ADME; conditions: both sexes, rat, pooled rat liver microsomes, pH 7.4, NADPH
[2] = molecular target: T1, 5-HT2A receptor (Homo sapiens (Human), UniProt P28223); type: cell-based; conditions: Ca^2+ flux, HEK293
Description: (§1) Functional Assays at 5-HT2A, 5-HT2B, and 5-HT1A. Agonist activity at 5-HT2A, 5-HT2B, and 5-HT1A receptors was determined using a FLIPR Ca^2+ flux assay at WuXi AppTec (Hong Kong) Limited according to their standard protocols. Briefly, stably transfected cells expressing the receptor of interest (HEK293 for 5-HT2A and 5-HT2B; CHO cells for 5-HT1A) were grown and plated in a 384 well plate and incubated at 37° C. and 5% CO2 overnight. A solution of 250 mM probenecid in 1 mL FLIPR assay buffer was prepared fresh. This was combined with a fluorescent dye (Fluo-4 Direct™) to make a final assay concentration of 2.5 mM. […] The fluorescent dye was then added to the assay plate along with assay buffer to a final volume of 40 μL. The cell plate was incubated for 50 min at 37° C. and 5% CO2 and placed into the FLIPR Tetra along with the compound plate. 10p L of references and compounds were then transferred from the compound plate into the cell plate and the fluorescent signal was read.

[3] = molecular target: Alpha1A receptor (Homo sapiens (Human), UniProt P35348); assay: FLIPR Ca^2+ flux agonist assay at Alpha1A; type: cell-based
Chain of Alpha1A receptor (P35348 whole entry, looked up): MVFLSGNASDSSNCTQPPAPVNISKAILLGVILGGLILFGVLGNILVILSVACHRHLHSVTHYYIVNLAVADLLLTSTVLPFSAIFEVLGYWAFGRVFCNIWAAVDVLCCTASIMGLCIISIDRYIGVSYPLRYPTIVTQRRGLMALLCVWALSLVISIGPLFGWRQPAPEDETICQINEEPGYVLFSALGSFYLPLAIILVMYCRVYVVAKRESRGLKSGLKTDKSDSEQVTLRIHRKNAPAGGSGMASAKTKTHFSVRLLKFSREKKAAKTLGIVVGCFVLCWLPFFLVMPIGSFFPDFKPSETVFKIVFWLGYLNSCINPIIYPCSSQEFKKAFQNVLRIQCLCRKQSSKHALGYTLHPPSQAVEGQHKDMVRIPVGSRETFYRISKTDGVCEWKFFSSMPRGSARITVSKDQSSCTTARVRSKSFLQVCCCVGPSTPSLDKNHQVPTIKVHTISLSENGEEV
Description: Disclosed compounds were tested for agonist activity at several adrenergic (Alpha1A and Alpha2A) and dopamine (D1 and D2) receptor subtypes using Ca^2+ flux functional assays, with the results summarized in Table 6. Selectivity for the 5-HT2A receptor over these other targets varied depending on the specific target and compound.
(§2) Functional Assays at Adrenergic and Dopamine Receptors. Agonist activity at Alpha1A, Alpha2A, D1, and D2 receptors was determined using a FLIPR Ca^2+ flux assay at WuXi AppTec (Hong Kong) Limited according to their standard protocols. Briefly, stably transfected cells expressing the receptor of interest were grown and plated in a 384 well plate and incubated at 37° C. and 5% CO2 overnight. A solution of 250 mM probenecid in 1 mL FLIPR assay buffer was prepared fresh. This was combined with a fluorescent dye (Fluo-4 Direct™) to make a final assay concentration of 2.5 mM. Compounds were diluted 1:3.16 for 10 points and 750 nL was added to a 384 well compound plate using ECHO along with 30 μL assay buffer. The fluorescent dye was then added to the assay plate along with assay buffer to a final volume of 40 μL. The cell plate was incubated for 50 min at 37° C. and 5% CO2 and placed into the FLIPR Tetra along with the compound plate. 10 μL of references and compounds were then transferred from the compound plate into the cell plate and the fluorescent signal was read.

[4] = Metabolic stability in human liver microsomes (HLM); type: in vitro ADME; conditions: both sexes, human, pooled human liver microsomes, pH 7.4, NADPH
Text: HLM Stability. Pooled HLM from adult male and female donors (Corning 452117) were used.

[5] = molecular target: 5-HT1B receptor (Homo sapiens (Human), UniProt P28222); assay: cAMP accumulation agonist assay at 5-HT1B; type: cell-based
Chain of 5-HT1B receptor (P28222 whole entry, looked up): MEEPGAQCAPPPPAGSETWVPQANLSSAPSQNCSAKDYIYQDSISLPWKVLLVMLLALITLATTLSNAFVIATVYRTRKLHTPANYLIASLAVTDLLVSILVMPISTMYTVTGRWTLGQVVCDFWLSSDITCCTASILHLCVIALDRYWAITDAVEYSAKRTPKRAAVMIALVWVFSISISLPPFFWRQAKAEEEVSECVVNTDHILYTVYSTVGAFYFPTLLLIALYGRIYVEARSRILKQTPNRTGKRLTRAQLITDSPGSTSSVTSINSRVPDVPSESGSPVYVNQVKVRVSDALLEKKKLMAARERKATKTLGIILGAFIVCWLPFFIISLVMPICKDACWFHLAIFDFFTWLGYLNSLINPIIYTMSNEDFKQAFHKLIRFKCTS
Description: Functional Assay at 5-HT1B. Agonist activity at 5-HT1B was determined using a cAMP accumulation protocol at WuXi AppTec (Hong Kong) Limited according to their standard protocols. Briefly, stably transfected cells were plated in an OptiPlate-384 well plate, incubated at RT for 60 mins, and cAMP standard solution (800 nM, 10 μL) was added to the blank well. Then, 10 μL detection reagent was added to each well, the plate incubated for 60 mins at RT, and the plate read using EnVision.

[6] = molecular target: 5-HT2B receptor (Homo sapiens (Human), UniProt P41595); assay: FLIPR Ca^2+ flux agonist assay at 5-HT2B; type: cell-based; conditions: HEK293
Chain of 5-HT2B receptor (P41595 whole entry, looked up): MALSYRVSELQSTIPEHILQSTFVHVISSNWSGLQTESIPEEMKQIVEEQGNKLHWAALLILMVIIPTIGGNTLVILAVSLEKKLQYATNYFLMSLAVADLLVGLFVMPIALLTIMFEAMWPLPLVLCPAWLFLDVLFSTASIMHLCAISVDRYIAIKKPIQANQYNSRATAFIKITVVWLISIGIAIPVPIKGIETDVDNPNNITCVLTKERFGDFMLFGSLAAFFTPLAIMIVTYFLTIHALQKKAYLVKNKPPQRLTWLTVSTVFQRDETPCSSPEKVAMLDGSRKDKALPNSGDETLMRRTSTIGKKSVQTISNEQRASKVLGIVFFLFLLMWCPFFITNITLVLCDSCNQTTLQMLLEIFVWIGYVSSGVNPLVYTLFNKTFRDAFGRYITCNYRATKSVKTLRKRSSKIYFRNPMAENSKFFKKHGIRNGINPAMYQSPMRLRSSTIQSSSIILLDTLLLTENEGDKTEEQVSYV
Description: as §1

[7] = Metabolic stability in mouse liver microsomes (MLM); type: in vitro ADME; conditions: mouse, pooled mouse liver microsomes, pH 7.4, MLM (CD-1), NADPH
Text: MLM Stability Pooled MLM from CD-1 mice (BIOIVT M00501) were used.

[8] = molecular target: 5-HT1A receptor (Homo sapiens (Human), UniProt P08908); assay: FLIPR Ca^2+ flux agonist assay at 5-HT1A; type: cell-based; conditions: CHO cells
Description: as §1

[9] = tested on: Sprague Dawley rats; assay: Forced swim test (FST) in rats; type: in vivo, rat; conditions: rat FST, 20 mg/kg SC at 23.5 h, 5 h and 1 h before test swim; average of 3 independent experiments
Description: Compound 1 induced antidepressant-like effects in the forced swim test (FST) in rats with a 23.5-h pre-treatment time (FIG. 2).
Animals. Male Sprague Dawley rats, aged 9-10 weeks, were used in this experiment. Animals were housed in groups of 2 under controlled temperature (22±3° C.) and relative humidity (30-70%) conditions, with 12-hour light/dark cycles, and with ad libitum food and water. This study was carried out in strict accordance with the requirements of the Committee for the Purpose of Control and Supervision of Experiments on Animals (CPCSEA), India. All efforts were made to minimize suffering.
Drugs and Drug Administration. Compound 1 was synthesized as described above. Desipramine HCl was commercially obtained. The test compound, saline vehicle, and the positive control desipramine were administered subcutaneously (SC), with doses calculated based on the freebase. Normal saline was used as the vehicle. All compounds were administered at a volume of 5 mL/kg. The test compound and vehicle were administered 0.5 h after the start of the training swim (Swim 1) and 23.5 h before the test swim (Swim 2). Desipramine was administered 3 times, at 23.5 h, 5 h, and 1 h before the test swim (Swim 2), each time at a dose of 20 mg/kg. Group size was n=10 per treatment.
Forced Swim Test (FST). […] Rats were handled for about 2 min daily for the 5 days prior to the beginning of the experimental procedure. On the first day of the experiment (i.e., Day 0), post randomization, training swim sessions (Swim 1) were conducted between 12:00 and 18:00 h with all animals by placing rats in individual glass cylinders (46 cm tall×20 cm in diameter) containing 23-25° C. water 30 cm deep for 15 minutes. At the conclusion of Swim 1, animals were dried with paper towels, placed in heated drying cages for 15 minutes, and then returned to their home cages. Animals were then administered the appropriate drug or vehicle treatment(s), as described above. For clarity, a compound administration time of 23.5 h before Swim 2 means 0.5 h after the start of Swim 1 and 0.25 h after the completion of Swim 1 (i.e., immediately after return to the home cage). On Day 1 (i.e., 24 h after start of Swim 1), animals performed the test swim (Swim 2) for a period of 5 min but otherwise under the same conditions as Swim 1. During all swim sessions, the water was changed between each animal.
Behavioral scoring was conducted by observers who were blind to the treatment groups. Animals were continuously observed during Swim 2 and the total time spent engaging in the following behaviors was recorded: immobile, swimming, and climbing. A rat was judged to be immobile when it remained floating in the water without struggling and was making only those movements necessary to keep its head above water. A rat was judged to be swimming when it made active swimming motions, more than necessary to merely maintain its head above water (e.g., moving around in the cylinder). A rat was judged to be climbing when it made active movements with its forepaws in and out of the water, usually directed against the walls.
Statistical Analysis. The data points shown represent the mean±standard error of the mean (SEM). Analysis was performed using GraphPad Prism 6. Comparisons between groups were performed using the one-way analysis of variance (ANOVA), followed by Dunnett's test for comparisons to vehicle.
Additional disclosed compounds were tested in the forced swim test (FST) in rats according to the procedure described in Example 35.

[10] = molecular target: D1 receptor (Homo sapiens (Human), UniProt P21728); assay: FLIPR Ca^2+ flux agonist assay at D1; type: cell-based
Chain of D1 receptor (P21728 whole entry, looked up): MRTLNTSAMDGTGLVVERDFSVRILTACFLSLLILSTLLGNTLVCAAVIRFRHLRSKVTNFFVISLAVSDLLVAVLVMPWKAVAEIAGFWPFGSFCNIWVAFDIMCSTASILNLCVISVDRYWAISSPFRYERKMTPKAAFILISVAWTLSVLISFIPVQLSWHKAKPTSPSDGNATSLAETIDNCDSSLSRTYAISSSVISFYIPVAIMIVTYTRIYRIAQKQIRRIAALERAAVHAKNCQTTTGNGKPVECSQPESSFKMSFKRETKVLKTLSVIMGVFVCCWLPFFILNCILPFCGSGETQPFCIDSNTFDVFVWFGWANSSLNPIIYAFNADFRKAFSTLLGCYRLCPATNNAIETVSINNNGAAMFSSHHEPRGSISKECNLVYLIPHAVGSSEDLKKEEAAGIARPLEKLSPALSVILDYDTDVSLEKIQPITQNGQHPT
Description: as §2, with “Compounds were diluted 1:3.16 for 10 points and 750 nL was added to a 384 well compound plate using ECHO along with 30 μL assay buffer.” left out

[11] = molecular target: D2 receptor (Homo sapiens (Human), UniProt P14416); assay: FLIPR Ca^2+ flux agonist assay at D2; type: cell-based
Chain of D2 receptor (P14416 whole entry, looked up): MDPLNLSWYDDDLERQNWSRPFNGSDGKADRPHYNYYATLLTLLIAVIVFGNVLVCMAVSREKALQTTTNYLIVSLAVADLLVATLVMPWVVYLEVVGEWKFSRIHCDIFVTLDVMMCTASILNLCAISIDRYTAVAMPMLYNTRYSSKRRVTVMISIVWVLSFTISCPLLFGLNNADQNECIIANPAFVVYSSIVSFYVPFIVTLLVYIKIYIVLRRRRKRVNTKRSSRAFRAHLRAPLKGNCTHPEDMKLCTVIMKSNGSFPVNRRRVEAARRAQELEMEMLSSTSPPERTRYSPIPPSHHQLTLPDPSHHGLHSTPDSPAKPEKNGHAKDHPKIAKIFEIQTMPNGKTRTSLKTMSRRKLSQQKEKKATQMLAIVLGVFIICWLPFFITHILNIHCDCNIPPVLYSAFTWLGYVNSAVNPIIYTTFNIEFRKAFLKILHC
Description: as §2, with “Compounds were diluted 1:3.16 for 10 points and 750 nL was added to a 384 well compound plate using ECHO along with 30 μL assay buffer.” left out

[12] = molecular target: T1, 5-HT2A receptor; type: cell-based; conditions: beta-arrestin recruitment
Description: The degree of arrestin bias varied substantially across the other compounds tested as well.
Arrestin Functional Assay at 5-HT2A. Recruitment of beta-arrestin was determined using a PathHunter assay at Eurofins DiscoverX (Fremont, CA) according to their standard protocols. PathHunter GPCR beta-arrestin assays take advantage of DiscoverX's proprietary Enzyme Fragment Complementation technology. The GPCR is fused in frame with a small enzyme donor fragment ProLink™ (PK) and co-expressed in cells stably expressing a fusion protein of beta-arrestin and the larger, N-terminal deletion mutant of beta-galactosidase. Activation of the GPCR (5-HT2A receptor in this case) stimulates binding of beta-arrestin to the PK-tagged GPCR and forces complementation of the two enzyme fragments, resulting in the formation of an active beta-galactosidase enzyme. This interaction leads to an increase in enzyme activity that can be measured using chemiluminescent PathHunter Detection Reagents. Briefly, PathHunter cells expressing 5-HT2A receptors were seeded in a volume of 20 μL into 384-well plates and incubated at 37° C. for the appropriate time prior to testing. […] Plates were then imaged on a microplate reader and the agonist activity was calculated using the following formula: % Activity=100%×(mean RLU of test sample−mean RLU of vehicle control)/(mean MAX control ligand−mean RLU of vehicle control), where RLU=relative light units.

Compound | half-life at 1 μM [1] [min] | 5-HT2A % Act @ Max Dose [2] [%] | Alpha 1A % Act @ Max Dose [3] [%] | half-life at 1 μM [4] [min] | 5-HT1B % Act @ Max Dose [5] [%] | 5-HT2B % Act @ Max Dose [6] [%] | half-life at 1 μM [7] [min] | 5-HT1A % Act @ Max Dose [8] [%] | Time Immobile [9] [s] | D1 % Act @ Max Dose [10] [%] | D2 % Act @ Max Dose [11] [%] | 5-HT2A Arrestin % Act @ Max Dose [12] [%] | agonist type in the 5-HT2A arrestin recruitment assay, in words [12]
CCN(CC)C(=O)[C@@H]1C=C2c3cccc4[nH]cc(c34)C[C@H]2N(CCC(F)(F)F)C1 [Compound 12, (6aR,9R)-N,N-diethyl-7-(3,3,3-trifluoropropyl)-4,6,6a,7,8,9-hexahydroindolo[4,3-fg]quinoline-9-carboxamide] | 5.9 | 78.69 | 2.08 | 13.5 | 95.51 | 29.55 | 2.1 | 71.42 | – | – | – | – | –
CNCCCN1c2ccccc2CCc2ccccc21 [Desipramine, reference compound] | – | – | – | – | – | – | – | – | 60.93 | – | – | – | –
CCN(CC)C(=O)[C@@H]1C=C2c3cccc4[nH]cc(c34)C[C@H]2N(C)C1 [LSD, lysergic acid diethylamide, reference compound] | 60.2 | 107.7 | 60.3 | 71.6 | 98.03 | 19.26 | 31.3 | 91.39 | – | 94.9 | 78.33 | 52.646 | partial agonists
CCN(CC)C(=O)[C@@H]1C=C2c3cccc4[nH]cc(c34)C[C@H]2N(CC2CC2)C1 [Compound 13, (6aR,9R)-N,N-diethyl-7-(Cyclopropylmethyl)-4,6,6a,7,8,9-hexahydroindolo[4,3-fg]quinoline-9-carboxamide] | 27.7 | 92.60 | 80.79 | 21.1 | 90.43 | 91.75 | 3.7 | 83.08 | – | – | – | – | –
